Laboratory results as given in patent US20230357266A1, “PHOTOA[…] AND USES THEREOF” (priority 2022, published 2023).

Assays:
[1] = molecular target: T1, acetylated BSA (Bos taurus, UniProt P02769); experiment: Light-induced covalent labeling of model protein (slot blot, anti-biotin detection), with or without iridium catalyst Ir-9049; assay type: biochemical; conditions: 50 μM probe, 0.8 μM acetylated BSA, no catalyst, 20 minutes at 365 nm or 455 nm
T1 construct: purchased Promega
Method: The capacity of these vinyl-extended aryl-azide-based photoreactive groups to undergo activation by either UV or visible 455 nm light in the presence or absence of a catalyst for subsequent covalent crosslinking with neighboring proteins was further evaluated through labeling efficiency of a model protein (FIGS. 4 and 5). […] Plates remained in the dark (control) or irradiated using Efficiency Aggregators biophotoreactor for 20 minutes at either 365 nm (100% UV=^˜80 W) or 455 nm (100%=^˜80 W or 2% 2 W). To evaluate subsequent covalent labeling efficiencies, reactions were subjected to Zeba column clean-up (ThermoFisher) to remove non-crosslinked vinyl-extended-aryl-azide-biotin probes and then spotted on nitrocellulose membranes using a slot blot apparatus. Membranes were then blocked with 5% BSA (Promega) in TBST for 1 hour at room temperature and subsequently incubated overnight at 4° C. with anti-biotin antibody (Invitrogen) in TBST. The next day membranes were washed 3 times with TBST and then incubated for an hour with a secondary anti-goat-HRP-antibody (Jackson laboratories). Following three washes in TBST, membranes were treated with ECL substrate (Promega) and scanned on the chemiluminescence channel to detect BSA labeled with biotin. […]

[2] = comparator value for simple phenyl-azide; cited from earlier work

T1 sequence (P02769 25-607): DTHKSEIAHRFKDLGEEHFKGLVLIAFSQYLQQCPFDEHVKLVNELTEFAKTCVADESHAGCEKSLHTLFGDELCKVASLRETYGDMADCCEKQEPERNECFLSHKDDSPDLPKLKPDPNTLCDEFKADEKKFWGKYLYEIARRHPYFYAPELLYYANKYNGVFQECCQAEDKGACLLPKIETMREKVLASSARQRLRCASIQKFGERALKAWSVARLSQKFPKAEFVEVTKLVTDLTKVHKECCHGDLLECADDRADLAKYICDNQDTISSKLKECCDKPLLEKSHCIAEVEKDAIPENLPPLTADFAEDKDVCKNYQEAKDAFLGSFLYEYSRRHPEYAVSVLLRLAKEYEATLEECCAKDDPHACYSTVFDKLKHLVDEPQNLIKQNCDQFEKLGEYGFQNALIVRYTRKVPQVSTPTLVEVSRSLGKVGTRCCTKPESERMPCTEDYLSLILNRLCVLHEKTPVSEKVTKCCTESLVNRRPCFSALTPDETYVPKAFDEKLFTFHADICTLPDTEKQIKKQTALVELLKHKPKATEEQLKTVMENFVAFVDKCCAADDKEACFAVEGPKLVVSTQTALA

SMILES	UV versus 455 nm activation efficiencies (quantitated band volumes) [1]	λmax [2]
C/C(=C\C(=O)NCCOCCOCCOCCOCCNC(=O)CCCC[C@@H]1SC[C@@H]2NC(=O)N[C@@H]21)c1ccc2cc(N=[N+]=[N-])ccc2c1 [Compound 9582]	greater 455 nm activation efficiencies	–
C/C(=C\C(=O)NCCOCCOCCOCCOCCNC(=O)CCCC[C@@H]1SC[C@@H]2NC(=O)N[C@@H]21)c1ccc2cc(N=[N+]=[N-])c(C#N)cc2c1 [Compound 9616]	greater 455 nm activation efficiencies	–
[N-]=[N+]=Nc1ccccc1 [phenyl-azide]	–	~260 nm
